Series [1] can be described thus: pH stability (special liability). Type of series: physicochemical.
Series [2] in a line: Metabolite study in human liver S9 (high resolution LC-MS). The class given is in vitro ADME. As for the experimental part: Metabolite studies were conducted using Q-M3190 and Q-6009 (Q is Glutamine).
Liver S9 is the supernatant obtained by grinding and centrifuging the liver cells. The enzymes content is lower compared to Hepatocytes. It mainly contains CYP enzymes and some biphasic enzymes (but no biphasic coenzyme), so additional coenzyme (NADPH and UDPGA, etc.) is needed to mediate the biphasic reaction.

The target in series [3] is T1, GLP-1R (Homo sapiens, UniProt P43220). Briefly: CRE-Luc cAMP responsive luciferase reporter assay in HEK293/CRE-Luc/hGLP1R cells. Type of series: cell-based. To be noted: for Emax: HEK293, read-out: Emax (% GLP-1), CRE-dependent reporter activity, HEK293/CRE-Luc/hGLP1R. The arrangement: engineered to express full-length human GLP1R (GenBank: AAI12127.1) (HEK293/CRE-Luc/hGLP1R); expressed in transfected cells; host or cells: HEK293/CRE-Luc (HEK293/FSC11/pCDNA3.1 + GLP1R, ACL6822). The text has this: To test the activity of GLP1R agonist linker-payloads (LPs) and anti-GLP1R antibody-tethered ligands (ATLs) of the invention, a cell-based cAMP responsive luciferase reporter assay was developed. To generate the assay cell line, the firefly luciferase gene was placed under the control of four copies of a cAMP response element (4×CRE) located upstream of a minimal promoter and transfected into HEK293 cells and referred to herein as HEK293/CRE-Luc cells. HEK293/CRE-Luc cells were then engineered to express full-length human GLP1R (GenBank: AAI12127.1) (HEK293/CRE-Luc/hGLP1R).
(§1) For all assays, cells were seeded into 384-well plates (Falcon #353988) at 6,000 cells/well in assay media (Opti-MEM, 1% FBS, 1×Penicillin-Streptomycin) and incubated overnight at 37° C. Serial dilutions of the anti-GLP1R ATLs and non-binding control ATLs were performed in assay media. Serial dilutions of linker-payloads (LPs) were performed in 100% DMSO (ATCC, #4-X-5), followed by 1:100 dilution in assay media. Test articles were added to cells (1:5 dilution) using VIAFLO 384 (Integra) with the last well in each serial dilution series serving as a blank control containing only assay media for ATLs or assay media with 0.2% DMSO for LPs. The blank was plotted as a continuation of the serial dilution.
For the CRE-Luc assay, after a 5-hours incubation at 37° C., luciferase activity was determined by addition of ONE-Glo reagent (Promega, #E6130) followed by measurement of relative light units (RLUs) on EnVision Plate Reader (Perkin Elmer).
(§2) EC50 values for luminescence assays were determined using a four-parameter logistic equation over a 12-point dose response curve (GraphPad Prism).
For orientation: Reporter assays use an easily measured gene product as a stand-in for the process of interest.

The target of series [4] is T1, GLP-1R. Nature of the series: b-arrestin 2 recruitment enzyme fragment complementation assay in HEK293/b-arrestin2/hGLP1R cells. Type of series: cell-based. More on the design: The full-length human GLP1R (NP_002053.3) with a C-terminus fusion to a small b-gal fragment called enzyme donor or ProLink (PK); host or cells: HEK293/b-arrestin2-EA (HEK293/Barrestin clone 2C6/hGLP1R-Prolink1 high sorted, ACL21687).
Excerpt: To test the recruitment of b-arrestin 1 and b-arrestin 2 to GLP1R upon receptor activation, two enzyme fragment complementation assays were developed. To generate the assay cell lines, b-arrestin 1 fused to the b-galactosidase (b-gal) reporter fragment called enzyme acceptor (EA) (i.e., b-arrestin1-EA) or b-arrestin 2 fused to the b-gal reporter fragment EA (i.e., b-arrestin2-EA) were transduced into HEK293 cells using PathHunter b-Arrestinl Retroparticles (DiscoverX, #83-OT-TB-N-01) or PathHunter b-Arrestin2 Retroparticles (DiscoverX, #93-1087), respectively. The full-length human GLP1R (NP_002053.3) with a C-terminus fusion to a small b-gal fragment called enzyme donor or ProLink (PK) (i.e., hGLP1R-PK) was then engineered into HEK293/b-arrestinl-EA cells and HEK293/b-arrestin2-EA cells to generate the cell lines referred herein as HEK293/b-arrestin1/hGLP1R and HEK293/b-arrestin2/hGLP1R. Recruitment of b-arrestin 1 or b-arrestin 2 to GLP1R in these reporter cell lines brings both b-gal fragments (EA and PK) into close proximity, leading to reconstitution of a fully functional enzyme capable of hydrolyzing a substrate and generating a chemiluminescent signal.
as §1
For b-arrestin 1 and b-arrestin 2 recruitment assays, after a 1-hour incubation at 37° C., PathHunter Detection Reagent (Eurofins DiscoverX, #93-0001) was added to the wells followed by a 1-hour incubation at room temperature. RLUs were measured on EnVision Plate Reader (Perkin Elmer).
as §2
For orientation: Arrestin recruitment assays detect the binding of arrestin to an activated receptor.

The target in series [5] is T1, GLP-1R. Briefly: GLP-1R cAMP assay of peptides (Tables 10, 14, 15). The class given is cell-based. On the technique in general: Changes in cAMP serve as a functional read-out for many G protein-coupled receptors.

Values joined by “and” are separate entries in the source; they are usually repeats but may differ in a detail not shown here. Identical values can stand only once.

T1 sequence (P43220 24-463): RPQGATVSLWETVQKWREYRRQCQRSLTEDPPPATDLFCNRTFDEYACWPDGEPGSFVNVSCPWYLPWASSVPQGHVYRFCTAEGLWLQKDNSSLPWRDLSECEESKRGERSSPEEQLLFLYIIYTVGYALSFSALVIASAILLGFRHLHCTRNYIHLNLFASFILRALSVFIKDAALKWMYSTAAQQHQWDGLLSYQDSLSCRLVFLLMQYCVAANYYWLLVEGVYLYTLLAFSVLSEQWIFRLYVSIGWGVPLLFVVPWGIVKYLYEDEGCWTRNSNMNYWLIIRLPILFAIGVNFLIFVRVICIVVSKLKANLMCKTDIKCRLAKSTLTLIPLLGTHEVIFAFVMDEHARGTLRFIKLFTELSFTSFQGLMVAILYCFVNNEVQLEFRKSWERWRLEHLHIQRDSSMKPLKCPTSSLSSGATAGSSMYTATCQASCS

Take `CCc1cc(OCCCCn2cc(COCCOCCOCCOCCOCCOCCOCCOCCN)nn2)ccc1-c1ccc(C[C@H](NC(=O)[C@H](CC(=O)O)NC(=O)[C@H](CO)NC(=O)[C@@H](NC(=O)C(C)(Cc2ccccc2F)NC(=O)[C@@H](NC(=O)CNC(=O)[C@H](Cc2nn[nH]n2)NC(=O)C(C)(C)C(=O)NCCc2cnc[nH]2)[C@@H](C)O)[C@@H](C)O)C(=O)N[C@@H](CCCc2cc(C)cc(C)c2)C(=O)O)cc1` (some centres unmarked) [M6009]: the Special liability result in series [1] was “stable at pH <3 or pH >11, and unstable at PH <1”. The “amount remaining / detected after incubation of Q-M6009” value in series [2] (Q-M6009 in human liver S9, text) was 93%. Further, the “Relative Abundance (% Total)” value was 2.34 % Total in series [2] (metabolites of Q-M3190 at 4 hours in human liver S9) and 13.14 % Total in series [2] (metabolites of Q-M6009 at 4 hours in human liver S9). Also, the Emax at GLP-1R [3] came out at 92.1%. For the same molecule, at GLP-1R [3] (HEK293/CRE-Luc/hGLP1R cells), the “CRE-dependent luciferase reporter activity (in words)” value is on record as “comparable activities as that of M3190”. In addition, in the series “physchem”, the solubility (in general, the dissolved amount per volume that the medium holds) was > 70000 µg/mL and > 30000 µM. Moreover, on GLP-1R [4] (HEK293/b-arrestin2/hGLP1R cells), the “b-arrestin 2 recruitment (in words)” value is “comparable activities as that of M3190”. Moreover, the “GLP-1R CAMP Max” value on GLP-1R [5] (Table 10) amounted to 139.7%. In addition, the EC50 – broadly, the concentration at which the effect is half-maximal – on GLP-1R [5] (Table 10, read-out: GLP-1R CAMP EC50) was found to be 2.23 nM.

With `CCc1cc(OCCCCn2cc(COCCOCCOCCOCCOCCOCCOCCOCCN)nn2)ccc1-c1ccc(C[C@H](NC(=O)[C@H](CC(=O)O)NC(=O)[C@H](CO)NC(=O)[C@@H](NC(=O)C(C)(Cc2ccccc2F)NC(=O)[C@@H](NC(=O)CNC(=O)[C@H](Cc2nnn[nH]2)NC(=O)C(C)(C)C(=O)NCCc2cnc[nH]2)[C@@H](C)O)[C@@H](C)O)C(=O)O)cc1` (some centres unmarked) [M6324], the Emax at GLP-1R [3] came to 91.6%; on GLP-1R [4] (HEK293, read-out: Emax (% GLP-1), b-Arrestin2 recruitment, HEK293/b-arrestin2/hGLP1R), 0.7%; at GLP-1R [4] (read-out: b-arrestin 2 recruitment Emax relative to GLP-1, HEK293/b-arrestin2/hGLP1R cells) it was 0.7%. Also, the EC50 is above 1000 nM on GLP-1R [4] and 882 nM at GLP-1R [5]. The solubility in the series “Solubility in water” is > 70000 µg/mL and > 30000 µM. The “GLP-1R CAMP Max” value at GLP-1R [5] (Table 10) is reported as 53.33%.

(Values after US20250171516A1, “PEPTIDE ACIDS AS A GLP1R AGONIST AND ANTIBODY-DRUG CONJUGATES THEREOF” (Regeneron Pharmaceuticals, Inc., priority 2023, published 2025).)
